From PubChem BioAssay AID298 (DTP/NCI, 2004)
Values joined by “and” are separate entries in the source; they are usually repeats but may differ in a detail not shown here. Equal values may be shown once. Inconclusive results are not listed.

Test system: MX-1 breast xenograft, intrarenal, nude mice, tumor weight
Experiment: NCI In Vivo Anticancer Drug Screen. Data for tumor model Human Mammary Carcinoma MX-1 Xenograft (intrarenal inoculation) in NU/NU BALB/C (nude) mice
Settings: endpoint: mean tumor weight change, higher = larger tumour
Experimental: The antitumor activity of compounds was measured in mice bearing transplantable tumors. Survival or tumor size were measured and the results are expressed as the measurement made in the treated group (T) divided by the measurement made in the vehicle treated control group (C). The tumor model used in this assay is Human Mammary Carcinoma MX-1 Xenograft (intrarenal inoculation) in NU/NU BALB/C (nude) mice

[1] = dose: 150.0 mg/kg/injection, schedule: Q04DX003 (ip), vehicle: saline with Tween-80
[2] = dose: 300.0 mg/kg/injection, schedule: Q04DX003 (ip), vehicle: saline with Tween-80
[3] = dose: 600.0 mg/kg/injection, schedule: Q04DX003 (ip), vehicle: saline with Tween-80
[4] = dose: 6.25 mg/kg/injection, schedule: Q04DX003 (ip), vehicle: Klucel (hydroxypropylcellulose) (HPC)
[5] = dose: 100.0 mg/kg/injection, schedule: Q04DX003 (ip), vehicle: Klucel (hydroxypropylcellulose) (HPC)

CC(O)CCC(=O)c1ccoc1 (centres undefined)
T/C (dose: 3.75 mg/kg/injection, schedule: Q01DX010 (ip), vehicle: saline): 191 % of control | T/C (dose: 7.5 mg/kg/injection, schedule: Q01DX010 (ip), vehicle: saline): 95 % of control and 120 % of control | T/C (dose: 60.0 mg/kg/injection, schedule: Q01DX010 (ip), vehicle: saline): 49 % of control

ClC1(Cl)Cc2ccccc21
T/C [1]: 109 % of control | T/C [2]: 109 % of control | T/C [3]: 45 % of control

COc1ccc(C(C)c2cc3c(cc2OC)OCO3)cc1 (centres undefined)
T/C (dose: 12.5 mg/kg/injection, schedule: Q04DX003 (ip), vehicle: saline with Tween-80): 88 % of control | T/C (dose: 25.0 mg/kg/injection, schedule: Q04DX003 (ip), vehicle: saline with Tween-80): 79 % of control | T/C (dose: 50.0 mg/kg/injection, schedule: Q04DX003 (ip), vehicle: saline with Tween-80): 83 % of control | T/C (dose: 100.0 mg/kg/injection, schedule: Q04DX003 (ip), vehicle: saline with Tween-80): 53 % of control

Cc1cc2cc3cc(C)c(N)cc3nc2cc1N
T/C (dose: 200.0 mg/kg/injection, schedule: Q04DX003 (sc), vehicle: saline with Tween-80): 161 % of control | T/C (dose: 400.0 mg/kg/injection, schedule: Q04DX003 (sc), vehicle: saline with Tween-80): 106 % of control | T/C (dose: 800.0 mg/kg/injection, schedule: Q04DX003 (sc), vehicle: saline with Tween-80): 107 % of control | T/C (dose: 1600.0 mg/kg/injection, schedule: Q04DX003 (sc), vehicle: saline with Tween-80): 107 % of control

COc1cccc2c1C(=O)C1=C(C2=O)c2c(O)cc(CO)cc2C(O)C1O (centres undefined)
T/C (dose: 6.25 mg/kg/injection, schedule: Q04DX003 (ip), vehicle: other): 84 % of control | T/C (dose: 12.5 mg/kg/injection, schedule: Q04DX003 (ip), vehicle: other): 102 % of control | T/C (dose: 25.0 mg/kg/injection, schedule: Q04DX003 (ip), vehicle: other): 96 % of control

CN=C(NC)c1ccc(NC(=O)/C=C\c2ccc(/C=C/C(=O)Nc3ccc(C(=NC)NC)cc3)cc2)cc1
T/C [4]: 89 % of control

CC(=O)O[C@H]1C(=O)[C@@]2(C)[C@H]([C@H](OC(=O)c3ccccc3)[C@]3(O)C[C@H](OC(=O)[C@H](O)[C@@H](NC(=O)c4ccccc4)c4ccccc4)C(C)=C1C3(C)C)[C@]1(OC(C)=O)CO[C@@H]1C[C@@H]2O
T/C (dose: 1.88 mg/kg/injection, schedule: Q01DX009 (ip), vehicle: Klucel (hydroxypropylcellulose) (HPC)): 5 % of control and 16 % of control | T/C (dose: 2.5 mg/kg/injection, schedule: Q01DX009 (ip), vehicle: Klucel (hydroxypropylcellulose) (HPC)): 12 % of control | T/C (dose: 3.75 mg/kg/injection, schedule: Q01DX009 (ip), vehicle: Klucel (hydroxypropylcellulose) (HPC)): -80 % of control and -100 % of control | T/C (dose: 4.45 mg/kg/injection, schedule: Q01DX009 (ip), vehicle: Klucel (hydroxypropylcellulose) (HPC)): -100 % of control | T/C (dose: 5.0 mg/kg/injection, schedule: Q01DX009 (ip), vehicle: Klucel (hydroxypropylcellulose) (HPC)): -61 % of control | T/C (dose: 6.67 mg/kg/injection, schedule: Q01DX009 (ip), vehicle: Klucel (hydroxypropylcellulose) (HPC)): -100 % of control | T/C (dose: 7.5 mg/kg/injection, schedule: Q01DX009 (ip), vehicle: Klucel (hydroxypropylcellulose) (HPC)): -100 % of control | T/C (dose: 10.0 mg/kg/injection, schedule: Q01DX009 (ip), vehicle: Klucel (hydroxypropylcellulose) (HPC)): -84 % of control and -100 % of control | T/C (dose: 15.0 mg/kg/injection, schedule: Q01DX009 (ip), vehicle: Klucel (hydroxypropylcellulose) (HPC)): -100 % of control

[Cl][Pt+2][Cl].[NH-]C1CCC1.[NH2-]
T/C (dose: 6.25 mg/kg/injection, schedule: Q04DX003 (sc), vehicle: saline): -94 % of control | T/C (dose: 12.5 mg/kg/injection, schedule: Q04DX003 (sc), vehicle: saline): -97 % of control

O=C1c2ccccc2C(Cl)(c2ccc(Cl)cc2)c2ccc(Cl)cc21 (centres undefined)
T/C [1]: 53 % of control | T/C [2]: 60 % of control | T/C [3]: 48 % of control | T/C (dose: 1200.0 mg/kg/injection, schedule: Q04DX003 (ip), vehicle: saline with Tween-80): 30 % of control

CC(=O)C1=C(O)C2(O)C(=O)c3c(c(C)c4ccc(C)c(O)c4c3O)CC2C(N)C1=O (centres undefined)
T/C (dose: 100.0 mg/kg/injection, schedule: Q04DX003 (sc), vehicle: saline): 89 % of control | T/C (dose: 200.0 mg/kg/injection, schedule: Q04DX003 (sc), vehicle: saline): 107 % of control | T/C (dose: 400.0 mg/kg/injection, schedule: Q04DX003 (sc), vehicle: saline): 98 % of control | T/C (dose: 800.0 mg/kg/injection, schedule: Q04DX003 (sc), vehicle: saline): 84 % of control

CCNC=O
T/C (dose: 200.0 mg/kg/injection, schedule: Q01DX010 (sc), vehicle: saline): 85 % of control | T/C (dose: 400.0 mg/kg/injection, schedule: Q01DX010 (sc), vehicle: saline): 70 % of control | T/C (dose: 800.0 mg/kg/injection, schedule: Q01DX010 (sc), vehicle: saline): 27 % of control

COc1cccc(Sc2ccc([N+](=O)[O-])c3no[n+]([O-])c23)c1
T/C (dose: 7.5 mg/kg/injection, schedule: Q04DX003 (ip), vehicle: saline with Tween-80): 69 % of control and 86 % of control | T/C (dose: 30.0 mg/kg/injection, schedule: Q04DX003 (ip), vehicle: saline with Tween-80): 124 % of control | T/C (dose: 480.0 mg/kg/injection, schedule: Q04DX003 (ip), vehicle: saline with Tween-80): 36 % of control and 41 % of control and 50 % of control

C[C@]12CC[C@H]3[C@@H](CCC4=C[C@@H](OC5OCC(OC6OC(CO)C(O)C(O)C6O)C(O)C5O)CC[C@@]43C=O)[C@@]1(O)CCC2C1=CC(=O)OC1 (some centres undefined)
T/C (dose: 15.0 mg/kg/injection, schedule: Q04DX003 (sc), vehicle: Klucel (hydroxypropylcellulose) (HPC)): 118 % of control

CN(Cc1cnc2nc(N)nc(N)c2n1)c1ccc(C(=O)N[C@@H](CCC(=O)O)C(=O)O)cc1
T/C (dose: 3.0 mg/kg/injection, schedule: Q04DX003 (sc), vehicle: sodium bicarbonate): 152 % of control | T/C (dose: 6.0 mg/kg/injection, schedule: Q04DX003 (sc), vehicle: sodium bicarbonate): 162 % of control | T/C (dose: 12.0 mg/kg/injection, schedule: Q04DX003 (sc), vehicle: sodium bicarbonate): 112 % of control | T/C (dose: 18.0 mg/kg/injection, schedule: Q04DX003 (ip), vehicle: sodium bicarbonate): 55 % of control | T/C (dose: 24.0 mg/kg/injection, schedule: Q04DX003 (sc), vehicle: sodium bicarbonate): 80 % of control

COc1cc2cc(c1Cl)N(C)C(=O)C[C@H](OC(=O)[C@H](C)N(C)C(C)=O)[C@]1(C)O[C@H]1[C@H](C)[C@@H]1C[C@@](O)(NC(=O)O1)[C@H](OC)C=C/C=C(\C)C2
T/C (dose: 12.5 micrograms/kg/injection, schedule: Q01DX010 (sc), vehicle: Klucel (hydroxypropylcellulose) (HPC)): 152 % of control | T/C (dose: 25.0 micrograms/kg/injection, schedule: Q01DX010 (sc), vehicle: Klucel (hydroxypropylcellulose) (HPC)): 73 % of control | T/C (dose: 50.0 micrograms/kg/injection, schedule: Q01DX010 (sc), vehicle: Klucel (hydroxypropylcellulose) (HPC)): 75 % of control | T/C (dose: 100.0 micrograms/kg/injection, schedule: Q01DX010 (sc), vehicle: Klucel (hydroxypropylcellulose) (HPC)): 14 % of control | T/C (dose: 200.0 micrograms/kg/injection, schedule: Q01DX010 (sc), vehicle: Klucel (hydroxypropylcellulose) (HPC)): -78 % of control

CCOC(=O)c1c[nH]c2ccc3c(nc(C)n3C)c2c1=O
T/C [5]: 122 % of control | T/C (dose: 200.0 mg/kg/injection, schedule: Q04DX003 (ip), vehicle: Klucel (hydroxypropylcellulose) (HPC)): 122 % of control | T/C (dose: 400.0 mg/kg/injection, schedule: Q04DX003 (ip), vehicle: Klucel (hydroxypropylcellulose) (HPC)): 94 % of control | T/C (dose: 800.0 mg/kg/injection, schedule: Q04DX003 (ip), vehicle: Klucel (hydroxypropylcellulose) (HPC)): 77 % of control

CO[C@@]12[C@@H]3N[C@@H]3CN1C1=C(C(=O)C(NCC3CCCO3)=C(C)C1=O)[C@@H]2COC(N)=O (some centres undefined)
T/C [4]: 43 % of control | T/C (dose: 12.5 mg/kg/injection, schedule: Q04DX003 (ip), vehicle: Klucel (hydroxypropylcellulose) (HPC)): 56 % of control and 57 % of control | T/C (dose: 12.5 mg/kg/injection, schedule: Q04DX003 (ip), vehicle: distilled water + Tween-80): 1 % of control and 3 % of control | T/C (dose: 25.0 mg/kg/injection, schedule: Q04DX003 (ip), vehicle: Klucel (hydroxypropylcellulose) (HPC)): 35 % of control and 59 % of control | T/C (dose: 50.0 mg/kg/injection, schedule: Q04DX003 (ip), vehicle: Klucel (hydroxypropylcellulose) (HPC)): 28 % of control and 32 % of control | T/C (dose: 50.0 mg/kg/injection, schedule: Q04DX003 (ip), vehicle: distilled water + Tween-80): -4 % of control | T/C [5]: 14 % of control

COC(=O)Nc1cn2cc(C(=O)c3cccs3)ccc2n1
T/C (dose: 300.0 mg/kg/injection, schedule: Q04DX003 (sc), vehicle: Klucel (hydroxypropylcellulose) (HPC)): 70 % of control | T/C (dose: 600.0 mg/kg/injection, schedule: Q04DX003 (sc), vehicle: Klucel (hydroxypropylcellulose) (HPC)): 74 % of control | T/C (dose: 1200.0 mg/kg/injection, schedule: Q04DX003 (sc), vehicle: Klucel (hydroxypropylcellulose) (HPC)): 102 % of control | T/C (dose: 2400.0 mg/kg/injection, schedule: Q04DX003 (sc), vehicle: Klucel (hydroxypropylcellulose) (HPC)): 96 % of control
